Each block holds one substance with its values, some of them ahead of it.
Tests used:
[1] = Thermal denaturation followed by fluorescence ratio, two-state fit; assay type: physicochemical; details: thermal stability of the 183C acrylodan conjugate mutant
Method: (§1) The titration series were mixed with GGBP183C⋅acrylodan or BD_SM4⋅acrylodan conjugates in 384-well microtiter plates. The temperature dependence of the titrations was measured in a real-time PCR machine (Roche LightCycler 480) by determining the ratio of fluorescence emission intensities at 488, 510, and 580 nm (excitation at 440 nm) as a function of temperature (290-370K). Temperatures were advanced in 1K steps. At each temperature data was collected for at 1-second intervals for 60 seconds at which point the signal had relaxed to a steady value associated with the new temperature. Collection times were adjusted to minimize photobleaching (which was not detectable under these experimental conditions). Data reduction software was developed to convert these observations into time-independent datasets that record fluorescence as a function of temperature for each well and associate wells with their concentration of titrant and additive. Management tools were developed to maintain a database of titrations and their analyses.
Fits of these equation systems to experimental observations such as shown in FIG. 5 require good initial estimates of the parameters. These can then be refined using multi-dimensional conjugate gradient methods. To obtain local fits for protein thermostability in the absence of ligand we solve
This gives excellent fits (FIG. 7).

[2] = Glucose titration at room temperature on Nanodrop3300 fluorimeter; assay type: binding
Method: (§2) In addition to the Roche LightCycler, which has a limited choice of emission wavelengths, data for selected mutants also was measured at room temperature on a Nanodrop3300 (Thermo Scientific) fluorimeter, which records full emission spectra. Emission intensities at a particular wavelength were extracted by integration of the spectral emission intensities over a 20-nm interval centered on that wavelength.
(§3) Signals S (either single-wavelength emission intensities, LT, or ratios of intensities at two wavelengths, Rig) were fit to ligand-binding isotherms:
(§4) where [L] is the ligand concentration and Kd the dissociation constant corresponding to ^appKd or ^trueKd for fits to R12 (weighted by the relative contributions of ^satβ at the two different wavelengths) and Iλ respectively. For a given isothermal titration, values for ^appKd and ^true Kd were obtained using a non-linear fitting algorithm in which these two parameters were simultaneously fit to the three experimental binding isotherms using equations 29 and 30, with the two monochromatic isotherms sharing the same ^trueKd value. Three separate pairs of ^apoβ and ^satβ were fit in this procedure.

[3] = Fluorescence emission response to ligand binding; set-up: key to Response Intensity^c: +, increases in response to ligand; —: decreases; 0, no change in the glucose titration; key to Response Shape^b: m, monochromatic; d, dichromatic (i.e. spectral shape changes); 0, no change in the glucose titration; details: glucose titration; Nanodrop3300; room temperature
Method: as §1, §2

[4] = Isothermal glucose titrations from fluorescent landscapes (Roche LightCycler); assay type: binding
Method: as §1
The response of acrylodan to glucose binding was separated from the effects of thermal denaturation by extracting binding isotherms within the temperature range where the apo-protein remains >99% folded (T<320 K; FIG. 7). Within this temperature range, binding isotherms were constructed by extracting fluorescence values across different wells, each containing different glucose concentrations, at a given temperature, and fit individually with high accuracy to isotherms (FIG. 8):
using linear baselines which vary individually in accordance with the tilt of the S, S1, and S2 baseplanes that correspond the saturated glucose complex. The individually fit Kd(T) values were converted into ΔGb(T) and fit to the Gibbs-Helmholtz equation 9 (FIG. 9).
(§5) Analysis of mutant affinity values: Isothermal glucose titrations were extracted from the fluorescent landscape or emission datasets as described above. Monochromatic emission intensities Iλ. (these intensities correspond to a bandpass intensity recorded with a physical filter in the case of the Roche LightCycler) were fit to
(§6) where ^apoIλ2 ^apoIλ2 and ^satIλ2^satIλ2 are the emission intensities of the monochromatic signal at wavelength λ2λ2 of the ligand-free and ligand-bound protein, respectively. Equation 28 illustrates that the ^appKd ^appKd values obtained by fits of 25 to ratiometric signals are wavelength dependent. To obtain wavelength-independent values needed for comparison of mutant proteins, it is necessary to simultaneously fit ^appKd ^appKd to the ratiometric signal and ^trueKd ^trueKd to the two monochromatic signals. For a given isothermal titration, values for ^appKd ^appKd and ^trueKd ^trueKd were obtained using a non-linear fitting algorithm in which these two parameters were simultaneously fit to the three experimental binding isotherms using equations 23 and 27, with the two monochromatic isotherms sharing the same ^trueKd ^trueKd value. Three separate pairs of linear ^apoβ ^apoβ and ^satβ ^satβ baselines were fit in this procedure. TABLES 1-5 record the ^trueKd ^trueKd values at 25° C., obtained by analysis of Roche LightCycler data in 488 nm and 510 nm channels. The uncertainty of the fit (‘error’) was obtained using a boot-strapping technique in which 37% of the data was replicated. In all cases, no binding was recorded if one of ^appKd ^appKd or ^trueKd ^trueKd exceeded 200 mM. The glucose constant of GGBP183 C-acrylodan is 4.21±0.08 mM at 25° C.

[5] = Galactose titration at room temperature on Nanodrop3300 fluorimeter; assay type: binding; details: ^e noisy data
Method: as §2, §3, §4

[6] = Isothermal glucose titrations from fluorescent landscapes (Roche LightCycler); assay type: binding; details: 37° C.; mutations in GGBP183C⋅acrylodan; read-out: glucose Kd values at 37° C.
[7] = Galactose affinities of the mutants that bind glucose (Roche LightCycler); assay type: binding; details: trueKd at 25° C., 183C acrylodan conjugates, read-out: Kd^298K(galactose)/mM
Source text: as §5, §6
The galactose affinities for those mutants that bind glucose were also determined.

[8] = apparent, ratiometric signal at the listed wavelength pair, read-out: Affinities (mM)^d Glucose aPPKa
[9] = from monochromatic signals, read-out: Affinities (mM)^d Glucose trueKa
[10] = 25° C., read-out: glucose affinities
[11] = apparent, ratiometric signal at the listed wavelength pair, read-out: Affinities (mM)^d Galactose ^appKd
[12] = from monochromatic signals, read-out: Affinities (mM)^d Galactose ^trueKd
[13] = trueKd at 25° C., 183C acrylodan conjugates, LightCycler 488 nm and 510 nm channels, ± = bootstrap uncertainty of fit, read-out: Kd^298K(glucose)/mM

Substance: N91A: GGBP 183C acrylodan conjugate with mutation N91A
- Tm/K [1]: 326 K

Substance: M182W: GGBP 183C acrylodan conjugate with mutation M182W
- Tm/K [1]: 322 K

Substance: A155L: GGBP 183C acrylodan conjugate with mutation A155L
- Tm/K [1]: 320 K

Substance: D236A: GGBP 183C acrylodan conjugate with mutation D236A
- Tm/K [1]: 320 K

Substance: F16A: GGBP 183C acrylodan conjugate with mutation F16A
- Tm/K [1]: 319 K

Substance: N256D: GGBP 183C acrylodan conjugate with mutation N256D
- Tm/K [1]: 321 K

Substance: N211A: GGBP 183C acrylodan conjugate with mutation N211A
- Tm/K [1]: 317 K

- Kd [2, 8]: 29 mM
- Kd [2, 9]: 22 mM
- Response Intensity^c [3]: —
- Response Shape^b [3]: d
Substance: N211Q: GGBP 183C acrylodan conjugate with mutation N211Q
- Tm/K [1]: 317 K

- Kd [4, 10]: ~0.2 mM
Substance: GGBP16C-badan: F16C mutant of E. coli GGBP, badan conjugate

Substance: N211W: GGBP 183C acrylodan conjugate with mutation N211W
- Tm/K [1]: 328 K

Substance: Y10A: GGBP 183C acrylodan conjugate with mutation Y10A
- Tm/K [1]: 326 K

Substance: D14E: GGBP 183C acrylodan conjugate with mutation D14E
- Tm/K [1]: 318 K

Substance: K92A: GGBP 183C acrylodan conjugate with mutation K92A
- Tm/K [1]: 323 K

Substance: D14T: GGBP 183C acrylodan conjugate with mutation D14T
- Tm/K [1]: 316 K

- Kd [5, 11]: 6.7 mM
- Kd [5, 12]: 8.7 mM
- Kd [2, 8]: 0.05 mM
- Kd [2, 9]: 0.05 mM
- Response Intensity^c [3]: —
- Response Shape^b [3]: m
Substance: A155M: GGBP 183C acrylodan conjugate with mutation A155M
- Tm/K [1]: 321 K

- Kd [5, 11]: 21 mM
- Kd [5, 12]: 21 mM
- Kd [4, 13]: 18.8 ± 1.3 mM
- Kd [2, 8]: 20 mM
- Kd [2, 9]: 15 mM
- Response Intensity^c [3]: —
- Response Shape^b [3]: d
- Kd [6]: ~14 mM
Substance: H152N: GGBP 183C acrylodan conjugate with mutation H152N
- Tm/K [1]: 322 K

Substance: H152K: GGBP 183C acrylodan conjugate with mutation H152K
- Tm/K [1]: 319 K

Substance: D14L: GGBP 183C acrylodan conjugate with mutation D14L
- Tm/K [1]: 311 K

Substance: D14H: GGBP 183C acrylodan conjugate with mutation D14H
- Tm/K [1]: 317 K

Substance: N211F: GGBP 183C acrylodan conjugate with mutation N211F
- Tm/K [1]: 323 K

Substance: F16L: GGBP 183C acrylodan conjugate with mutation F16L
- Tm/K [1]: 321 K

Substance: N211M: GGBP 183C acrylodan conjugate with mutation N211M
- Tm/K [1]: 317 K

Substance: N211Y: GGBP 183C acrylodan conjugate with mutation N211Y
- Tm/K [1]: 316 K

- Kd [2, 8]: 0.31 mM
- Kd [2, 9]: 0.35 mM
- Response Intensity^c [3]: —
- Response Shape^b [3]: m?
Substance: A155S: GGBP 183C acrylodan conjugate with mutation A155S
- Tm/K [1]: 321 K

Substance: N211H: GGBP 183C acrylodan conjugate with mutation N211H
- Tm/K [1]: 320 K

Substance: A155W: GGBP 183C acrylodan conjugate with mutation A155W
- Tm/K [1]: 322 K

Substance: A155Y: GGBP 183C acrylodan conjugate with mutation A155Y
- Tm/K [1]: 321 K

Substance: D154N: GGBP 183C acrylodan conjugate with mutation D154N
- Tm/K [1]: 318 K

- Kd [4, 13]: 25.8 ± 2 mM
- Kd [2, 8]: 4.6 mM
- Kd [2, 9]: 5.1 mM
- Response Intensity^c [3]: —
- Response Shape^b [3]: d
- Kd [6]: ~36 mM
Substance: H152Q: GGBP 183C acrylodan conjugate with mutation H152Q
- Tm/K [1]: 322 K

- Kd [5, 11]: 0.82 mM
- Kd [5, 12]: 0.93 mM
- Kd [2, 8]: 0.06 mM
- Kd [2, 9]: 0.06 mM
- Response Intensity^c [3]: —
- Response Shape^b [3]: m
Substance: A155F: GGBP 183C acrylodan conjugate with mutation A155F
- Tm/K [1]: 321 K

Substance: R158K: GGBP 183C acrylodan conjugate with mutation R158K
- Tm/K [1]: 318 K

Substance: A155K: GGBP 183C acrylodan conjugate with mutation A155K
- Tm/K [1]: 318 K

- Kd [7]: 90 ± 21 mM
Substance: D14A: GGBP 183C acrylodan conjugate with mutation D14A
- Tm/K [1]: 317 K

- Kd [4, 13]: 21.1 ± 0.9 mM
- Kd [2, 8]: 15 mM
- Kd [2, 9]: 16 mM
- Response Intensity^c [3]: —
- Response Shape^b [3]: d
- Kd [6]: ~17 mM
Substance: H152F: GGBP 183C acrylodan conjugate with mutation H152F
- Tm/K [1]: 321 K

Substance: A155Q: GGBP 183C acrylodan conjugate with mutation A155Q
- Tm/K [1]: 321 K

- Kd [4, 10]: ~0.2 mM
Substance: GGBP16C-acrylodan: F16C mutant of E. coli GGBP, acrylodan conjugate

- Kd [7]: 17.7 ± 2.1 mM
- Kd [4, 13]: 13.5 ± 2.5 mM
Substance: A155H: GGBP 183C acrylodan conjugate with mutation A155H
- Tm/K [1]: 314 K

Substance: D236N: GGBP 183C acrylodan conjugate with mutation D236N
- Tm/K [1]: 320 K

Substance: D154A: GGBP 183C acrylodan conjugate with mutation D154A
- Tm/K [1]: 320 K

Substance: N211S: GGBP 183C acrylodan conjugate with mutation N211S
- Tm/K [1]: 319 K

Substance: N211K: GGBP 183C acrylodan conjugate with mutation N211K
- Tm/K [1]: 315 K

Substance: N256A: GGBP 183C acrylodan conjugate with mutation N256A
- Tm/K [1]: 324 K

Substance: H152A: GGBP 183C acrylodan conjugate with mutation H152A
- Tm/K [1]: 316 K

Substance: D14N: GGBP 183C acrylodan conjugate with mutation D14N
- Tm/K [1]: 317 K

Substance: R158A: GGBP 183C acrylodan conjugate with mutation R158A
- Tm/K [1]: 322 K
